The values that follow come from patent publication US20110217300A1, “Quinazolinone Compounds and Methods of Use Thereof” (priority 2007, published 2011).

Usually IC50 stands for the concentration needed to halve the response being measured. A lower IC50 goes with higher potency.

The target of one data set is T1, HsEg5 (Homo sapiens, UniProt P52732).
T1 sequence (P52732 18-359 limits assumed): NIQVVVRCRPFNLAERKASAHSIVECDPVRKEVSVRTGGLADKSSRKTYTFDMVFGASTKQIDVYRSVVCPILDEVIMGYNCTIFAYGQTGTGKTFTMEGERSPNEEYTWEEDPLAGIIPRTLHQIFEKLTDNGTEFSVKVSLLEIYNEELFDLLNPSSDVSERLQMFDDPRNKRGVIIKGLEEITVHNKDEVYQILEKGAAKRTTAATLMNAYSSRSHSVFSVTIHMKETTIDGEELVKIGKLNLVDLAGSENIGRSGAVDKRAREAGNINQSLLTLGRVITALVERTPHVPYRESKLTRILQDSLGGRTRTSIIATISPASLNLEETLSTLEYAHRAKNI
Briefly: Fluorescence detection of HsEg5 ATPase activity (ADP Quest, automated). It is filed as biochemical. In a few lines: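 Microtubule-activated HsEg5 motor fragment (10 nM, 500 nM MTs) preincubated 10 min with compound, then 20 μM ATP for 10 min at room temperature in Pipes pH 7.0, MgCl2, paclitaxel, 0.3% DMSO. ADP detected via coupled-enzyme resorufin fluorescence; IC50 over 100 μM–5 nM.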

The next data set relates to PACA2 tumor xenografts. The data set can be described thus: PACA2 tumor xenograft efficacy study (Example 106). It is filed as in vivo, mice. On the procedure: Six-week old female athymic nude mice (NCR nu/nu; Charles River Laboratory, Wilmington, Mass.) were acclimated to the animal housing facility for at least 1 week before the study. Efficacy studies were performed in athymic mice bearing PACA2 tumor xenografts to determine the effect of compound on tumor growth. Tumor cells (1×10^7 PACA2 cells/animal) were inoculated subcutaneously on day 0. Tumor dimensions were measured by a digital microcaliper, and tumor volumes were calculated as length×width^2/2. […] Results are expressed as mean tumor volume±SE. To assess differences in tumor size between groups, a Mann-Whitney non-parametric t test was performed and significance was assessed for p values <0.05. Tumor size was evaluated periodically during treatment at the indicated days post-inoculation. Results are represented as the mean of tumor volume in mm^3±SE of several tumors (n=10) in function of the treatment period. […] (See FIG. 1A).

Structures are written as SMILES.

On to `C#CC[C@H](c1nc2cc(Cl)ccc2c(=O)n1Nc1ccccc1)N(CCCN)C(=O)c1cccc(Cl)c1F` [Compound 1, N-(3-Amino-propyl)-3-chloro-N—[(R)-1-(7-chloro-4-oxo-3-phenylamino-3,4-dihydro-quinazolin-2-yl)-but-3-ynyl]-2-fluoro-benzamide], for which, at HsEg5, the midpoint of inhibition, the IC50, lay at 28 nM. The “tumor growth compared to the vehicle control group” value with PACA2 tumor xenografts (6.25 or 12.5 mg/kg intraperitoneally 3x weekly for 4 weeks, tumors ~100 mm^3 at start, FIG. 1A) was “Significant reductions in tumor growth”. Further, the tolerability of doses entry in the data set on PACA2 tumor xenografts (6.25 or 12.5 mg/kg intraperitoneally 3x weekly, PACA2 xenograft mice) was “well-tolerated”.
